Consider 17 molecules from patent publication US20240018161A1, “MODULATORS OF CYSTIC FIBROSIS TRANSMEMBRANE CONDUCTANCE REGULATOR” (VERTEX PHARMACEUTICALS INCORPORATED, priority 2020, published 2024).

The conditions of data set [1]: 13-membered ring.
Data set [2] concerns the target T1, CFTR-mediated chloride transport in human intestinal epithelial enteroid cells (Homo sapiens, UniProt P13569). Description: Membrane potential dye, Enteroid Assay B. It is filed as cell-based. As to conditions: Enteroid Assay B; for EC50: read-out: Ent. B EC50. The procedure: Base medium (ADF+++) consisted of Advanced DMEM/Ham's F12, 2 mM Glutamax, 10 mM HEPES, […] penicillin/streptomycin.
Bath 1 Buffer consisted of 1 mM MgCl2, 160 mM NaCl, 4.5 mM KCl, 10 mM HEPES, 10 mM Glucose, 2 mM CaCl2.
Chloride Free Buffer consisted of 1 mM Magnesium Gluconate, 2 mM Calcium Gluconate, 4.5 mM Potassium Gluconate, 160 mM Sodium Gluconate, 10 mM HEPES, 10 mM Glucose.
Bath1 Dye Solution consisted of Bath 1 Buffer, 0.04% Pluronic F127, 20 μM Methyl Oxonol, 30 μM CaCCinh-A01, 30 μM Chicago Sky Blue.
Chloride Free Dye Solution consisted of Chloride Free Buffer, 0.04% Pluronic F127, 20 μM Methyl Oxonol, 30 μM CaCCinh-A01, 30 μM Chicago Sky Blue.
3. Enteroid Cell Harvesting and Seeding
Cells were recovered in cell recovery solution, collected by centrifugation at 650 rpm for 5 min at 4° C., resuspended in TryPLE and incubated for 5 min at 37° C. Cells were then collected by centrifugation at 650 rpm for 5 min at 4° C. and resuspended in IEMM containing 10 μM ROCK inhibitor (RI).
5. Membrane Potential Dye, Enteroid Assay B
Briefly, cells were washed 5 times in Bath 1 Buffer. Bath 1 Dye Solution was added and the cells were incubated for 25 min at room temperature. Following dye incubation, cells were washed 3 times in Chloride Free Dye Solution. Chloride transport was initiated by addition of Chloride Free Dye Stimulation Solution and the fluorescence signal was read for 15 min.

Data set [3] addresses T1, CFTR-mediated chloride transport in human intestinal epithelial enteroid cells. In words: Membrane potential dye, Enteroid Assay A. In kind it is cell-based. Particulars: for EC50: read-out: Ent. A EC50. The method in brief: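 Membrane potential dye (20 μM methyl oxonol, with 30 μM CaCCinh-A01 and 30 μM Chicago Sky Blue) loaded 25 min at room temperature into ROCK-inhibitor-seeded human enteroid cells. Chloride-free stimulation buffer triggered transport, followed by 15 min fluorescence. % Activity relative to 3 μM/3 μM/300 nM triple-combination control.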

Where [4] appears, read: from Cc1cccc(C)c1-c1cc(OC2CCCC(c3ncc(OC(C)C)cn3)N[C@@H]2CC(C)C)nc(NS(=O)(=O)c2cccc(C(=O)O)c2)n1, amide bond, CDMT/NMM, DMF, 7.3 mM, 60.0 h.

By EC50 is commonly meant the midpoint of the concentration-response curve.

Molecules are shown by their SMILES. Read-outs that look alike come from different tables or passages of the source.

T1 sequence (P13569 with tags, fused parts or gaps DEL508-508): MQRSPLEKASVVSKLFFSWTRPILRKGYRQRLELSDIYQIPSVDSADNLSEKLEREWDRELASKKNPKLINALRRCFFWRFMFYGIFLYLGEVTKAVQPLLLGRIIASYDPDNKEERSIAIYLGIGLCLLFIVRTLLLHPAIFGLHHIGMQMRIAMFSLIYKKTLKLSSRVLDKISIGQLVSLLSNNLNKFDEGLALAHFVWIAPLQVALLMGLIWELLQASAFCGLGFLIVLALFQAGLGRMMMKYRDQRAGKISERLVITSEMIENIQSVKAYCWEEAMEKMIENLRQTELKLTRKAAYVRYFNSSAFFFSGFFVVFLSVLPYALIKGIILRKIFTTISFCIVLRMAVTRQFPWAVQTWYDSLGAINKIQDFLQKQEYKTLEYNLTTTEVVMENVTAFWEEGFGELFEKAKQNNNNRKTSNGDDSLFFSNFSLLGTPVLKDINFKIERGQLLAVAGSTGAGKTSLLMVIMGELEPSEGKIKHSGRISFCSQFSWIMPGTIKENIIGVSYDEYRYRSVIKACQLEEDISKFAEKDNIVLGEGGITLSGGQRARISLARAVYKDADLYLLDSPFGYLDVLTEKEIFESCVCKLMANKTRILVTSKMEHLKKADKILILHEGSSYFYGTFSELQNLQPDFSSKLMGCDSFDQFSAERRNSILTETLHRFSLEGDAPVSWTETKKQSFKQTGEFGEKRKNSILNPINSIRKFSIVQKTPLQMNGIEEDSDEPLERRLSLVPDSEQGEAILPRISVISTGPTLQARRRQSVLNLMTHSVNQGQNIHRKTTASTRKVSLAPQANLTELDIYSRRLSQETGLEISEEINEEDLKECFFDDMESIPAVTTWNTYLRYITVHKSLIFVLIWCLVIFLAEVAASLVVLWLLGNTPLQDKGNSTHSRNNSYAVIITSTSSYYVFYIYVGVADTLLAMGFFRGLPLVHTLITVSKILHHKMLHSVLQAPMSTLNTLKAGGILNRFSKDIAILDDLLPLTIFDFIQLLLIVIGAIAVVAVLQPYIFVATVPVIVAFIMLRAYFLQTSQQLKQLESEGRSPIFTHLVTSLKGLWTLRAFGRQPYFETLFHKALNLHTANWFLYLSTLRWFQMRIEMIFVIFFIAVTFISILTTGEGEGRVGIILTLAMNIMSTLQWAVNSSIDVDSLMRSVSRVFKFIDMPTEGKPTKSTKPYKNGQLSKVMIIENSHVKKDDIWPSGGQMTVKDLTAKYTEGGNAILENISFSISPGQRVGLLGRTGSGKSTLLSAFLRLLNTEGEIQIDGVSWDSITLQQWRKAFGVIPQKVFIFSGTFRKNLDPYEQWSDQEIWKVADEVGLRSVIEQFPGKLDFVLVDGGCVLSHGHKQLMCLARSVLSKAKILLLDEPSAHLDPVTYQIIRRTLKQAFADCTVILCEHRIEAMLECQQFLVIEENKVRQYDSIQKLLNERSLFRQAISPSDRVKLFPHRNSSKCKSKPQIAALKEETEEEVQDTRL

In turn, `Cc1cccc(C)c1-c1cc2nc(n1)NS(=N)(=O)c1cccc(c1)C(=O)N1CCN(C(=O)OC(C)(C)C)CC(C1)O2` (centres unmarked) returned a ring closure, isolated yield in data set [1] (from Cc1cccc(C)c1-c1cc(Cl)nc(NS(=N)(=O)c2cccc(C(=O)N3CCN(C(=O)OC(C)(C)C)CC(O)C3)c2)n1, snar bond, NaH, DMF, 15.3 mM, 1.5 h) of 23%.

On to `Cc1cccc(C)c1-c1cc2nc(n1)NS(=O)(=O)c1cccc(c1)C(=O)N1C(c3ncc(OC(C)C)cn3)CCCC(O2)[C@H]1CC(C)C` (some centres unmarked), for which, in data set [1] (setting [4]), the ring closure, isolated yield was determined as 14%.

Regarding `Cc1cccc(C)c1-c1cc2nc(n1)NS(=O)(=O)c1cccc(c1)C(=O)N1CC(C)(C)CC(O2)C1CC(C)C` (centres unmarked), the ring closure, isolated yield in data set [1] (from Cc1cccc(C)c1-c1cc(Cl)nc(NS(=O)(=O)c2cccc(C(=O)N3CC(C)(C)CC(O)C3CC(C)C)c2)n1, snar bond, NaH, DMF, 16.4 mM, 25.0 °C, 16.0 h) is 23%; in data set [1] (from Cc1cccc(C)c1-c1cc(Cl)nc(NS(=O)(=O)c2cccc(C(=O)N3CC(C)(C)CC(O)C3CC(C)C)c2)n1, snar bond, NaH, DMF, 17.8 mM, 25.0 °C, 8.0 h) it was 72%. The molecule `Cc1cccc(C)c1-c1cc2nc(n1)NS(=O)(=O)c1cccc(c1)C(=O)N1CCN(C(=O)OC(C)(C)C)CC1CO2` (centres unmarked) registered a ring closure, isolated yield in data set [1] (from Cc1cccc(C)c1-c1cc(OCC2CN(C(=O)OC(C)(C)C)CCN2)nc(NS(=O)(=O)c2cccc(C(=O)O)c2)n1, amide bond, HATU/DIEA, DMF, 13.8 mM, 25.0 °C, 2.0 h, 2 steps) of 81%. `Cc1cccc(C)c1-c1cc2nc(n1)NS(=O)(=O)c1cccc(c1)C(=O)N1CCN(C(=O)OC(C)(C)C)C[C@H](C1)O2` yielded a ring closure, isolated yield in data set [1] (from Cc1cccc(C)c1-c1cc(Cl)nc(NS(=O)(=O)c2cccc(C(=O)N3CCN(C(=O)OC(C)(C)C)C[C@@H](O)C3)c2)n1, snar bond, NaH, DMF, 33.1 mM, 0.0 °C, 3.5 h) of 64%. Take `Cc1cccc(C)c1-c1cc2nc(n1)NS(=O)(=O)c1cccc(c1)C(=O)N1CCN(C(=O)OC(C)(C)C)C[C@H]1CO2`: in data set [1] (from Cc1cccc(C)c1-c1cc(Cl)nc(NS(=O)(=O)c2cccc(C(=O)N3CCN(C(=O)OC(C)(C)C)C[C@H]3CO)c2)n1, snar bond, NaH, NMP, 4.4 mM, 70.0 °C, 2.0 h, 2 steps), the ring closure, isolated yield stood at 19%.

Consider `Cc1cccc(C)c1-c1cc2nc(n1)NS(=O)(=O)c1cccc(c1)C(=O)N1CCN(C(=O)OCc3ccccc3)C[C@H](C1)O2`, for which, in data set [1] (from Cc1cccc(C)c1-c1cc(Cl)nc(NS(=O)(=O)c2cccc(C(=O)N3CCN(C(=O)OCc4ccccc4)C[C@@H](O)C3)c2)n1, snar bond, NaH, DMF, 30.4 mM, 5.0 °C, 2.0 h), the ring closure, isolated yield was 44%. Regarding `Cc1cccc(C)c1-c1cc2nc(n1)NS(=O)(=O)c1cccc(c1)C(=O)N1Cc3cc(C(C)(C)C)ccc3C(C1)O2` (centres unmarked), the ring closure, isolated yield in data set [1] (from Cc1cccc(C)c1-c1cc(OC2CNCc3cc(C(C)(C)C)ccc32)nc(NS(=O)(=O)c2cccc(C(=O)O)c2)n1, amide bond, HATU/NaOtBu, THF/DMF, 25.0 °C, 0.25 h, 3 steps) was 14%.

Turning to `Cc1cccc(C)c1-c1cc2nc(n1)NS(=O)(=O)c1cccc(c1)C(=O)N1CCc3cc(C(C)(C)C)ccc3C(O2)[C@H]1CC(C)C` (single isomer, unassigned) [Compound 237], the ring closure, yield after HPLC (from Cc1cccc(C)c1-c1cc(OC2c3ccc(C(C)(C)C)cc3CCN[C@@H]2CC(C)C)nc(NS(=O)(=O)c2cccc(C(=O)O)c2)n1, amide bond, 13-membered ring, NaOtBu, HATU, THF/DMF, 19.2 mM, 0.0 °C, 0.08 h, 2 steps) was 18%. In addition, the EC50 in data set [2] was under 1000 nM. On to `Cc1cccc(C)c1-c1cc2nc(n1)NS(=O)(=O)c1cccc(c1)C(=O)N1CCN(C(=O)OCc3ccccc3)CC(O2)[C@H]1C` (single isomer, unassigned; diastereomer 1), for which the ring closure, isolated yield in data set [1] (from Cc1cccc(C)c1-c1cc(Cl)nc(NS(=O)(=O)c2cccc(C(=O)N3CCN(C(=O)OCc4ccccc4)CC(O)[C@H]3C)c2)n1, snar bond, NaH, DMF, 29.4 mM, 0.0 °C, 1.25 h) amounted to 17%.

`Cc1cccc(C)c1-c1cc2nc(n1)NS(=O)(=O)c1cccc(c1)C(=O)N1C(c3ncc(OC(C)C)cn3)CCCC(O2)[C@H]1CC(C)C` (single isomer, unassigned; isomer 1) showed a ring closure, isolated yield in data set [1] (from Cc1cccc(C)c1-c1cc(OC2CCCC(c3ncc(OC(C)C)cn3)N[C@@H]2CC(C)C)nc(NS(=O)(=O)c2cccc(C(=O)O)c2)n1, amide bond, CDMT/NMM, DMF, 16.3 mM, 24.0 h) of 23%. For the molecule `Cc1cccc(C)c1-c1cc2nc(n1)NS(=O)(=O)c1cccc(c1)C(=O)N1C(c3ncc(OC(C)C)cn3)CCCC(O2)[C@H]1CC(C)C` (single isomer, unassigned; isomer 2), the ring closure, isolated yield in data set [1] (setting [4]) amounted to 27%.

In data set [1] (from Cc1cccc(C)c1-c1cc(OCC2NC(c3ncc(OC(C)C)cn3)CCCC2CC(C)C)nc(NS(=O)(=O)c2cccc(C(=O)O)c2)n1, amide bond, CDMT/NMM, DMF, 16.2 mM, 40.0 h, 2 steps), `Cc1cccc(C)c1-c1cc2nc(n1)NS(=O)(=O)c1cccc(c1)C(=O)N1C(c3ncc(OC(C)C)cn3)CCCC(CC(C)C)C1CO2` (single isomer, unassigned; isomer a) gave a ring closure, isolated yield of 35%. `Cc1cccc(C)c1-c1cc2nc(n1)NS(=O)(=O)c1cccc(c1)C(=O)N1C[C@@H](CCCC1CC(C)C)O2` (stereo partly drawn) [Compound 181, (16R)-12-(2,6-Dimethylphenyl)-20-(2-methylpropyl)-15-oxa-8λ^6-thia-1,9,11,22-tetraazatetracyclo[14.4.1.13,7.110,14]tricosa-3(23),4,6,10(22),11,13-hexaene-2,8,8-trione] returned a ring closure, yield after HPLC (from Cc1cccc(C)c1-c1cc(Cl)nc(NS(=O)(=O)c2cccc(C(=O)N3C[C@H](O)CCCC3CC(C)C)c2)n1, snar bond, 13-membered ring, NaOtBu, THF, 17.5 mM, 25.0 °C, 24.0 h) of 4%. Also, in data set [2], the “Ent. B Max Activity (%)” value is reported as “++ (++ is 30-60%)” and the EC50 was under 1000 nM. Take `Cc1cccc(C)c1-c1cc2nc(n1)NS(=O)(=O)c1cccc(c1)C(=O)N1CCC(O2)c2ccccc2C1` (centres unmarked) [Compound 227, 12-(2,6-dimethylphenyl)-15-oxa-8λ^6-thia-1,9,11,26-tetraazapentacyclo[14.7.2.13,7.110,14.017,22]heptacosa-3(27),4,6,10(26),11,13,17,19,21-nonaene-2,8,8-trione]: the EC50 in data set [3] (enteroid cells incubated with test compound 18-24 hours, acute 10 μM forskolin and 300 nM N-[2,4-bis(1,1-dimethylethyl)-5-hydroxyphenyl]-1,4-dihydro-4-oxoquinoline-3-carboxamide) was under 1000 nM. In data set [3] (percentage of chloride transport of triple combination control (3 μM N-[(6-amino-2-pyridyl)sulfonyl]-6-(3-fluoro-5-isobutoxy-phenyl)-2-[(4S)-2,2,4-trimethylpyrrolidin-1-yl]pyridine-3-carboxamide based)), the “Ent. A Max Activity (%)” value is “++ (++ is 30-60%)”. Moreover, where the note is “from Cc1cccc(C)c1-c1cc(OC2CCNCc3ccccc32)nc(NS(=O)(=O)c2cccc(C(=O)O)c2)n1, amide bond, 14-membered ring, HATU/DIEA, DMF, 13.1 mM, 25.0 °C, 0.083 h, 3 steps”, the ring closure, yield after HPLC was determined as 12%. Regarding `Cc1cccc(C)c1-c1cc2nc(n1)NS(=O)(=O)c1cccc(c1)C(=O)N1CC(CCc3ccccc31)O2` (centres unmarked) [Compound 228, 5-(2,6-Dimethylphenyl)-2-oxa-9λ^6-thia-6,8,16,27-tetraazapentacyclo[14.8.1.13,7.110,14.017,22]heptacosa-3(27),4,6,10,12,14(26),17(22),18,20-nonaene-9,9,15-trione], in data set [3] (Enteroid Assay A), the “Ent. A Max Activity (%)” value is listed as “++ (++ is 30-60%)” and the EC50 lay in the range of 1000 to 3000 nM. The ring closure, yield after HPLC (from Cc1cccc(C)c1-c1cc(Cl)nc(NS(=O)(=O)c2cccc(C(=O)N3CC(O)CCc4ccccc43)c2)n1, snar bond, 13-membered ring, NaH, DMF, 21.9 mM, 25.0 °C, 48.0 h) turned out to be 15%. As for `Cc1cccc(C)c1-c1cc2nc(n1)NS(=O)(=O)c1cccc(c1)C(=O)N1Cc3ccccc3C(CO2)C1` (centres unmarked) [Compound 238, 12-(2,6-Dimethylphenyl)-15-oxa-8λ^6-thia-1,9,11,26-tetraazapentacyclo[15.7.1.13,7.110,14.018,23]heptacosa-3,5,7(27),10(26),11,13,18,20,22-nonaene-2,8,8-trione], the ring closure, yield after HPLC (from Cc1cccc(C)c1-c1cc(OCC2CNCc3ccccc32)nc(NS(=O)(=O)c2cccc(C(=O)O)c2)n1, amide bond, 14-membered ring, HATU/DIEA, DMF/THF, 136.0 mM, 16.0 h, 2 steps) came out at 5%. The concentration for a half-maximal effect (EC50) in data set [2] is under 1000 nM.
